Activity calls are given as the source filed them. The rule behind the calls is not given here. A value given as a limit tells only on which side of the number the result lay.

The nature of one experiment: reduced viability of parasite-Hsp90 expressing yeast – ATP luminescence, 48 h, cherry-picked samples, anti-malarial Hsp90 inhibitor project, dose response (AID 540268).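 For activity change, negative = inhibition: 0% = neutral control wells and -100% = positive control wells.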 Conditions: yeast expressing the parasite Hsp90, ATP luminescence.
With `O=C(CCSc1nnc(-c2ccncc2)o1)Nc1ccc(Cl)cc1`, the AC50 (in general, the concentration giving half of the maximal activity seen) is 2.87 µM.

Turning to `Cc1ccc(CNC(=O)c2ccc(Cn3nc(C)c(Cl)c3C)o2)cc1`, the AC50 is 7.23 µM.

For `CC1CCN(C(CC(=O)c2ccccc2)C(=O)c2ccccc2)CC1` (stereo not given), the AC50 is 3.28 µM.

Turning to `O=C(/C(=C/O)N=Nc1ccccc1)c1ccc(Cl)cc1`, the AC50 was 6.25 µM.

As to `O=C1C2C3C=CC(CNS(=O)(=O)c4ccccc4)(O3)C2C(=O)N1c1ccc(Cl)cc1` (stereo not given), the AC50 was 3.73 µM.

For the compound `CC1=CC2C(C(O)CC3(C)C2CC(C)C32OCOC23COCO3)C2(C)C/C(=C\O)C(=O)C=C12` (stereo not given), the AC50 is 3.13 µM.

As to `C[CH2][Hg][S]c1ccccc1C(=O)O`, the concentration at half-maximal activity (AC50) was 4.9 µM.

For `Cc1ccc(O)c(-c2cc(-c3cccc(Br)c3)n[nH]2)c1`, the AC50 was 4.38 µM.

As for `O=c1c2ccccc2sn1-c1ccccc1`, the AC50 is 9.19 µM.

`COc1ccc2oc(=O)c(-c3csc(Nc4cccc(O)c4)n3)cc2c1`: the AC50 was 7.93 µM.

For `O=C(/C=C/c1cccc([N+](=O)[O-])c1)c1cccs1`, the AC50 was 2.63 µM.

For the compound `CCc1ccc(S(=O)(=O)N(C(=O)c2ccncc2)c2ccc(OC(=O)c3ccncc3)cc2)cc1`, the AC50 was 1.28 µM.

For the compound `COc1ccc(C(=O)N/N=C/c2sc3ccccc3c2O)cc1`, the AC50 was 2.35 µM.

For the compound `CN1C(=O)C(N=Nc2ccc([N+](=O)[O-])cc2)SC1=S` (stereo not given), the AC50 was 3.87 µM.

As to `O=[S@]1Oc2ccccc2-c2ccccc21`, the AC50 was 1.67 µM.

In the case of `Oc1cc(Cl)c(Cl)c(Cl)c1Cl`, the AC50 is 1.7 µM.

For `Cc1occc1-c1nnc(-c2cc([N+](=O)[O-])cc([N+](=O)[O-])c2)o1`, the AC50 is 2.4 µM.

Take `CC(=O)NC(c1ccccc1)c1cc(Cl)c2cccnc2c1O` (stereo not given): the AC50 was 7.28 µM.

On to `C=C(C)COc1ccc(-c2[nH]ncc2Oc2cccc(OC)c2)c(O)c1`, for which the AC50 is 8.1 µM.

As for `O=C1Nc2ccc(Br)cc2/C1=C/C1CC=CCC1` (stereo not given), the AC50 is 8.99 µM.

On to `O=C1OCC(CO)(CO)N=C1NNc1ccc(Cl)c(Cl)c1`, for which the AC50 was 2.2 µM.

For `CCC1C/C(=C\c2cccnc2)C(=O)/C(=C/c2cccnc2)C1` (stereo not given), the AC50 is 9.06 µM.

Regarding `CC(C)C(=O)NC(c1cccc([N+](=O)[O-])c1)c1ccc2cccnc2c1O` (stereo not given), the AC50 is 2.73 µM.

Regarding `Oc1ccc(-c2nc3ccc4ccccc4c3c3c2CCC3)cc1O`, the AC50 was 8.29 µM.

In the case of `COc1ccc(S(=O)(=O)NC2CC3CCC2C3)cc1Cl` (stereo not given), the AC50 was 1.56 µM.

With `CCCNC(=O)c1nnsc1S(=O)(=O)c1ccc(Cl)cc1`, the AC50 was 0.758 µM.

Regarding `O=C(/C=C/c1ccccc1)NC(=S)NNC(=O)c1cnccn1`, the AC50 was 3.69 µM.

With `O=[N+]([O-])/C=C/c1cn(Cc2ccccc2)c2ccccc12`, the AC50 was 5.99 µM.

For `COc1ccc(OC)c2c1C(=O)C(Cl)=C(Cl)C2=O`, the AC50 is 1.64 µM.

For `CCOC(=O)c1ccc(N2C(=O)CC(N3CCC(O)(c4ccc(Cl)cc4)CC3)C2=O)cc1` (stereo not given), the AC50 is 4.04 µM.

Turning to `CCOC(=O)C1CCCN(C2CC(=O)N(c3cccc(C(F)(F)F)c3)C2=O)C1` (stereo not given), the AC50 is 4.24 µM.

Regarding `COc1ccc(N(C(=O)c2ccncc2)S(=O)(=O)c2ccccc2)cc1`, the AC50 was 1.66 µM.

For the compound `CC1(c2nnc(Cc3ccccc3)o2)CC(c2ccccc2[N+](=O)[O-])=NO1` (stereo not given), the AC50 was 1.77 µM.

For `Cn1c(CNc2ccc(Cl)cc2)nnc1SCc1ccccc1`, the AC50 is 3.43 µM.

For the compound `CCOc1cc(/C=C\[N+](=O)[O-])ccc1OCC(=O)Nc1ccccc1C`, the AC50 was 2.61 µM.

In the case of `OCCCn1c(C2CCCN2c2nc(-c3ccc(F)cc3)cs2)nc2cc(Cl)c(Cl)cc21` (stereo not given), the half-maximal activity concentration (AC50) was 5.62 µM.

With `Clc1nssc1=Nc1ccc(Br)cc1`, the AC50 was 3.4 µM.

Consider `Cc1cc2ccccn2c1C(=O)c1ccc([N+](=O)[O-])o1`, for which the half-maximal activity concentration (AC50) is 2.33 µM.

As for `COc1cccc(/C=C/c2ccc3cccc(O)c3n2)c1`, the AC50 is less than 0.195 µM.

Regarding `O=[N+]([O-])c1cc2no[n+]([O-])c2cc1N1CCCCC1`, the AC50 was 0.877 µM.

With `O=C(O)CC/C(=N/Nc1ccc([N+](=O)[O-])cc1)C(=O)O`, the AC50 is 2.22 µM.

On to `O=C(CCSc1ccc(Br)cc1)c1ccc(O)cc1`, for which the AC50 was 3.64 µM.

As to `CC(=O)Nc1ccc(Nc2cc(C(C)C)nc3c(-c4ccccc4)c(C)nn23)cc1`, the AC50 was 3.68 µM.

Regarding `N/C(Cc1ccc(Cl)cc1Cl)=N\OC(=O)c1ccc(Br)o1`, the AC50 is 4.14 µM.

In the case of `O=[N+]([O-])c1ccc(N2N=C(c3ccccc3)CC2c2ccccc2O)cc1` (stereo not given), the AC50 is 3.91 µM.

As for `OC(Cn1cncn1)(c1ccccc1)c1ccccc1`, the AC50 was 1.57 µM.

For `N#C/C(=C\c1ccc([N+](=O)[O-])o1)C(=O)Nc1ccc(F)cc1`, the AC50 was 0.33 µM.

As for `CCOC(=O)c1cc([N+](=O)[O-])c([N+](=O)[O-])cc1NC(C)=O`, the AC50 was 2.08 µM.

For the compound `CC(=NNc1nc2ccccc2o1)c1cc2ccccc2cn1`, the AC50 is 17.7 µM.

As for `COc1ccc(-c2nn(-c3ccccc3)cc2C(=O)N2CCN(S(=O)(=O)c3ccccc3[N+](=O)[O-])CC2)cc1`, the AC50 is 4.14 µM.

On to `CC(C)C1Nc2c(O)cc(Cl)c([N+](=O)[O-])c2C2C=CCC21` (stereo not given), for which the AC50 was 6.63 µM.

`CC1(C(=O)c2ccccc2)C2c3c(ccc4ccccc34)OC(=O)C21C(=O)N1CCOCC1` (stereo not given): the concentration at half-maximal activity (AC50) was 4.16 µM.

Regarding `O=c1cc(CSc2ccc(Cl)cc2)nc(-c2ccccn2)[nH]1`, the AC50 was 16.6 µM.

For the compound `COc1ccc(-c2nnc3n(CCc4ccccc4)c(=O)c4ccccc4n23)c(OC)c1`, the AC50 is 8.97 µM.

For the compound `Cc1cccc(C)c1OCC(=O)NNC(=S)NC(=O)C1CC1`, the AC50 is 1.35 µM.

Turning to `CCCCCCC(=O)N(O)C1CC(=O)N(c2ccc(Br)cc2)C1=O` (stereo not given), the AC50 was 2.22 µM.

Turning to `CNc1ccc2oc(C[C@H]3O[C@@]4(CC[C@H]3C)O[C@H]([C@H](C)C(=O)c3ccc[nH]3)[C@H](C)C[C@H]4C)nc2c1C(=O)O`, the AC50 was 0.813 µM.

For the compound `CC(=O)N1CCN(c2ccc(OC[C@H]3CO[C@](Cn4ccnc4)(c4ccc(Cl)cc4Cl)O3)cc2)CC1`, the AC50 was 1.29 µM.

As to `CC(C)(C)c1nnc(N/N=C/c2cc(Br)ccc2O)n(N)c1=O`, the AC50 is 4.92 µM.

Consider `CC(=NNC(=S)N1CC2CCC(CC2)C1)c1ccncn1`, for which the AC50 is 2.36 µM.

As for `CN(C)c1ccc(/C=C/c2ccc3c4ccccc4ccc3[n+]2-c2ccccc2)cc1`, the AC50 was 3.47 µM.

On to `CCCCCCCCCC[N+](C)(C)CC/C=C1/c2ccccc2Sc2ccc(Cl)cc21`, for which the AC50 is 6.32 µM.

Take `CCCC(=O)NC(c1ccco1)c1cc(Cl)c2cccnc2c1O` (stereo not given): the AC50 was 4.36 µM.

For the compound `Cc1ccc(N2C(=O)C3C4C=CC(CNC(=S)N5CCN(c6ccccn6)CC5)(O4)C3C2=O)cc1` (stereo not given), the AC50 was 8.31 µM.

For the compound `O=C(CCCNC(=O)c1ccc(Cl)cc1)OCc1cccc(Br)c1`, the AC50 was 4.54 µM.

With `CCCCCCCCCCOC(=O)Cn1c(COc2cccc(C)c2)[n+](C)c2ccccc21`, the AC50 is 15.5 µM.

With `CCC(=O)NC(c1cccs1)c1cc(Cl)c2cccnc2c1O` (stereo not given), the AC50 is 3.73 µM.

With `NC(=O)C1CCN(C2CC(=O)N(c3ccc(F)c(Cl)c3)C2=O)CC1` (stereo not given), the AC50 is 1.67 µM.

Regarding `Cc1cc(-c2n[nH]c(=S)n2/N=C/C(Br)=C/c2ccccc2)n[nH]1`, the AC50 is 15 µM.

For `COc1cccc(/C=N/Nc2ncc(C(F)(F)F)cc2Cl)c1O`, the AC50 was 4.33 µM.

As for `O=c1c(Br)ccc(Br)cc1Br`, the AC50 was 0.38 µM.

With `Oc1cccc2ccc(/C=C/c3ccccc3Cl)nc12`, the AC50 is 16.3 µM.

With `COc1ccc2c3c(ccc2c1)C(=O)/C(=C/O)CC3`, the AC50 was 4.29 µM.

Turning to `Cc1ccc(C(=O)c2no[n+]([O-])c2C(=O)c2ccc(C)cc2)cc1`, the AC50 is 2.03 µM.

For `CCN1CCCC1CN(Cc1cc2ccc(C)cc2[nH]c1=O)C(=S)Nc1ccc(F)cc1` (stereo not given), the half-maximal activity concentration (AC50) is 3.2 µM.

With `CC[C@H](C)/C=C/C1=CC2=C(Cl)C(=O)[C@@]3(C)OC(=O)C(C(=O)[C@H](C)[C@@H](C)O)=C3C2=CO1`, the AC50 is 15.2 µM.

For the compound `COc1ccccc1C(=O)NNC(=S)NC(=O)c1ccco1`, the AC50 was 2.41 µM.

As for `COc1cccc(/C=C2/CCC(CN(C)C)C2=O)c1` (stereo not given), the AC50 is 7.93 µM.

As to `CCN1/C(=C\c2ccc3ccccc3[n+]2CC)Sc2cc(C)ccc21`, the AC50 is 7.9 µM.

Consider `O=C(C#Cc1ccccc1)c1ccco1`, for which the AC50 is 1.95 µM.

On to `Oc1c(Br)cc(Br)cc1C=NCc1ccc(F)cc1`, for which the AC50 is 8.5 µM.

On to `O=[N+]([O-])c1cc(-n2cnnn2)ccc1N1CCC(Cc2ccccc2)CC1`, for which the AC50 was 4.23 µM.

Consider `CCCC(=O)NC(c1ccccc1)c1ccc2cccnc2c1O` (stereo not given), for which the AC50 is 4.7 µM.

Take `Oc1ccc(C=NN=C2c3ccccc3-c3ccccc32)c(O)c1`: the AC50 is 1.86 µM.

For `CC(C)c1ccc(-c2cc(C(=O)N3N=C(C(F)F)CC3(O)C(F)F)c3ccccc3n2)cc1` (stereo not given), the AC50 is 4.24 µM.

In the case of `CC1=C/C(=N\OS(=O)(=O)c2ccccc2)C(C)=CC1=O`, the AC50 was 0.597 µM.

Regarding `CCOC(=O)c1sc(-c2ccc(C(F)(F)F)cc2)nc1O`, the AC50 was 2.59 µM.

`CC1CCN(c2nc(Cl)nc(Nc3ccc([N+](=O)[O-])cc3)n2)CC1`: the concentration at half-maximal activity (AC50) is 24 µM.

Regarding `O=C(Nc1nc(-c2ccccn2)cs1)c1cc2ccccc2o1`, the AC50 is 4.24 µM.

In the case of `Oc1ccc2ccccc2c1N=Nc1ccccn1`, the AC50 is 2.66 µM.

As for `CC(C)(C)c1ccc(NC(=O)COC(=O)c2ccc([N+](=O)[O-])s2)cc1`, the AC50 is 3.88 µM.

Regarding `CCOC(=O)c1ccc(N2C(=O)C=CC2=O)cc1`, the AC50 is less than 0.195 µM.

Turning to `CC(=O)Nc1ccc2c(c1)Cc1cc(N3C(=O)C=CC3=O)ccc1-2`, the AC50 was 0.654 µM.

Consider `S=C1Cc2ccccc2N1`, for which the AC50 is 3.36 µM.

In the case of `CC(C)N(CCC(=O)c1ccc2ccccc2c1)Cc1ccccc1`, the AC50 was 17.6 µM.

For the compound `c1ccc(-c2ccc(C(c3ccccc3)n3ccnc3)cc2)cc1` (stereo not given), the AC50 is 1.07 µM.

In the case of `CC(C)(C)C(=O)C(Cl)C(=O)Nc1ccccc1` (stereo not given), the AC50 is 1.06 µM.

As to `O=c1cc(-c2ccccc2)cc(-c2ccccc2)n1O`, the AC50 is 1.17 µM.

Turning to `O=C(NCCCSc1ccccc1)c1cc(Br)ccc1O`, the AC50 is 7.37 µM.

Staying with this experiment, now noted: yeast expressing the parasite Hsp90, ATP luminescence, at 26 µM (top of the series).
In the case of `CCOC(=O)C1=C(Cc2ccc(Cl)cc2)C(=O)c2ccccc2C1=O`, the activity change, negative = inhibition was -104% (inactive).

The record behind these values is PubChem BioAssay AID540268 (Broad Institute, 2011).
